From patent US20240148757A1, “USE OF DIHYDROOROTATE DEHYDROGENASE (DHODH) INHIBITORS TO TARGET FERROPTOSIS IN CANCER THERAPY” (BOARD OF REGENTS, THE UNIVERSITY OF TEXAS SYSTEM, priority 2021, published 2024) come the findings set out here.

Assay [1] relates to GPX4^high HT-1080 cells. The experiment in a line: Cell viability / cell death (ferroptosis) in HT-1080 cells. It counts as cell-based, human. The conditions noted are these: 24 hours. In outline: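 HT-1080 cells were exposed to GPX4 or DHODH inhibitors for 4 h, and viability was then read by CCK-8 absorbance at 450 nm after 1 h at 37 °C. Separately, cell death was scored as the propidium iodide-positive fraction (5 μg/ml) by flow cytometry, ≥10,000 cells per well.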

Assay [2] deals with DHODH KO HT-1080 cells. Nature of the assay: Mitochondrial lipid peroxidation (mito-BODIPY) in DHODH KO HT-1080 cells. In kind it is cell-based, human. The conditions noted are these: pretreatment 10 μM, 24 hours.
In assay [3] the test system is GPX4^low patient-derived xenografts (PDXs). The experiment in a line: GPX4^low patient-derived xenograft model. In kind it is in vivo, NSG mice. The conditions noted are these: liproxstatin-1 10 mg/kg intraperitoneally daily. The text has this:
PDXs were generated in accordance with protocols approved by the Institutional Review Board at The University of Texas MD Anderson Cancer Center. Informed consent was obtained from the patients and the study is compliant with all relevant ethical regulations regarding research involving human participants. All the NOD scid gamma (NSG) mice were purchased from the Experimental Radiation Oncology Breeding Core Facility at MD Anderson Cancer Center and housed in the Animal Care Facility at the Department of Veterinary Medicine and Surgery at MD Anderson Cancer Center. PDX model used in this study was originally obtained from lung cancer PDX platform at MD Anderson Cancer Center. PDX experiments were performed as previously described (Liu, X., et al., Nat Cell Biol 22, 476-486 (2020)). Briefly, PDX tumors in cold DMEM media were minced into fragments 1-2 mm^3 in volume. Then each PDX tumor fragment was subcutaneously inoculated into the dorsal flank of NSG mice. When the tumors reached 50-100 mm 3 in volume, the mice were assigned randomly into different treatment groups for the treatment of brequinar, sulfasalazine, and/or liproxstatin-1 as described under cell line-derived xenograft model. The tumor volume was measured every 3 days until the endpoint and calculated according to the equation volume=length×width^2×½.
A general note: In xenograft studies the graft and the host belong to different species.

The subject of assay [4] is HT-1080 xenograft tumors. The experiment in a line: HT-1080 cell line-derived xenograft model. In kind it is in vivo, athymic nude mice. The conditions noted are these: liproxstatin-1 10 mg/kg intraperitoneally daily. On the procedure:
Fresh tumor tissues were fixed in 10% neutral buffered formalin overnight, washed once with PBS, and stored in 70% ethanol at 4° C. The tissues were dehydrated and embedded in paraffin by the Research Histology Core Laboratory (MD Anderson Cancer Center) according to standard protocols. Embedded tissues were sectioned at a thickness of 5 μm for H&E or immunohistochemistry (IHC) analysis. IHC analysis was performed as previously described (Gan, B., et al., Cancer Cell 18, 472-484 (2010); Gan, B., et al., J Cell Biol 175, 121-133 (2006)). Briefly, the primary antibodies, including ki-67 (1:500, 9027s, Cell Signaling Technology), cleaved-caspase 3 (1:500, 9661s, Cell Signaling Technology), or 4-HNE (1:400, ab46545, Abcam) were incubated overnight at 4° C. Staining was performed using the Vectastain elite ABC kit and DAB peroxidase substrate kit (Vector laboratories). Images were randomly taken from the […] (five images per tumor) at ×200 magnification using an Olympus BX43 microscope. All the xenograft experiments were performed in accordance with a protocol approved by the Institutional Animal Care and Use Committee and Institutional Review Board at The University of Texas MD Anderson Cancer Center. The study is compliant with all relevant ethical regulations regarding animal research. Female 4- to 6-week-old athymic nude mice (Foxn1^nu/Foxn1^nu) were purchased from the Experimental Radiation Oncology Breeding Core Facility at MD Anderson Cancer Center and housed in the Animal Care Facility at the Department of Veterinary Medicine and Surgery at MD Anderson. Cancer cell lines were suspended and counted in cold phosphate-buffered saline (PBS), and 5×10^6 HT-1080 or 1×10^7 NCI-H226 cells were injected into mice subcutaneously. When the tumor reached 50-100 mm^3, the mice were assigned randomly into different treatment groups. Brequinar or sulfasalazine was dissolved in dimethyl sulfoxide (DMSO) and diluted in PBS. Brequinar was intraperitoneally injected into mice at a dose of 30 mg/kg every three days. Sulfasalazine was intraperitoneally injected daily at a dose of 100 mg/kg. Liproxstatin-1 diluted in PBS was intraperitoneally injected daily at a dose of 10 mg/kg. The daily injection of brequinar, sulfasalazine, or liproxstatin-1 was continued until the endpoint as indicated in the corresponding figures. The tumor volume was measured every 3 days until the endpoint and calculated according to the equation volume=length×width^2×½.

With `Clc1cccc(CN=C2Nc3ccccc3NC23CCNCC3)c1` [liproxstatin-1], the “rescue of DHODH inhibition-induced cell death” value in assay [1] (BQR, pretreatment Lip-1 or ZVF 10 μM) is given as “the opposite was observed”. In addition, the “protection against GPX4 inhibition (RSL3 or ML162)-induced ferroptosis” value in assay [1] (DHODH WT, pretreatment 10 μM) was “rescued”. Also, in assay [2], the “suppression of GPX4 inhibitor-induced mitochondrial lipid peroxidation” value was “could be suppressed”. For the same molecule, in assay [3], the “restoration of brequinar-suppressed tumor growth” value was “could be restored”. Further, in assay [4], the “restoration of tumor growth suppressed by brequinar and sulfasalazine” value is “largely restored”.
